Measured values from ChEMBL document CHEMBL5046256, “The discovery of potent small molecule cyclic urea activators of STING” (Eur J Med Chem, 2022).
Calls of active or inactive are those of the source. The rule behind the calls is not given here.

Legend:
Type in all cases: cell-based
[1] = Agonist activity against human STING R232H variant transfected in HEK-293T cells co-expressing ISRE.ISG54 by luciferase reporter gene assay
HEK-293T [2] = experiment: Agonist activity against human STING R232H variant transfected in HEK-293T cells co-expressing ISRE.ISG54 at 5 uM by luciferase reporter gene assay relative to control
HEK-293T [3] = experiment: Agonist activity against human STING R232H variant transfected in HEK-293T cells co-expressing ISRE.ISG54 at 1 uM by luciferase reporter gene assay relative to control

Compound | EC50 ([1]; Homo sapiens, HEK-293T) [nM] | Activity (HEK-293T [2]) | other results
CC1c2ccc(C(=O)NCc3c(F)cc(F)cc3F)cc2N(Cc2cc(F)cc(F)c2)C(=O)N1C (stereo in doubt; 68) | – | – | EC50 ([1]; hek-293t): 117 nM
O=C(NCc1c(F)cc(F)cc1F)c1ccc2c(c1)N(Cc1cc(F)cc(F)c1)C(=O)N(C1CC1)C2 | – | 13% | –
CN1Cc2ncc(C(=O)NCc3c(F)cc(F)cc3F)cc2N(Cc2c(F)cccc2Cl)C1=O | – | – | Activity (HEK-293T [2]; filed as agonist): 76%
Cc1cc(CN2C(=O)N(C)C(C)c3ccc(C(=O)NCc4c(F)cc(F)cc4F)cc32)ccn1 (racemic) [listing 1 of 2 here] | – | – | EC50 ([1]; hek-293t): 247 nM
Cc1ccc(F)c(CN2C(=O)N(C)C(C)c3ccc(C(=O)NCc4c(F)cc(F)cc4F)cc32)n1 (stereo not given) | – | – | Activity (HEK-293T [3]; filed as agonist): 60%
CC1c2ccc(C(=O)NCc3c(F)cc(F)cc3F)cc2N(Cc2c(F)cccc2F)C(=O)N1C (stereo in doubt; 72) | – | – | EC50 ([1]; hek-293t): 51 nM
CC1c2ccc(C(=O)NCc3c(F)cc(F)cc3F)cc2N(Cc2ccc(F)cc2Cl)C(=O)N1C (stereo not given) | – | 25% | –
CN1Cc2ccc(C(=O)NCc3c(F)cc(F)cc3F)cc2N(Cc2cccc(C(N)=O)c2)C1=O | – | – | Activity (HEK-293T [2]; filed as agonist): 57%
CN1Cc2ccc(CNCc3c(F)cc(F)cc3F)cc2N(Cc2c(F)cccc2Cl)C1=O | – | 3% | –
Cc1cc(CN2C(=O)N(C)Cc3ccc(C(=O)NCc4c(F)cc(F)cc4F)cc32)no1 | – | – | Activity (HEK-293T [2]; filed as agonist): 68%
CN1Cc2ccc(C(=O)NCc3cccc(-c4ncco4)c3)cc2N(Cc2c(F)cccc2Cl)C1=O | – | inactive | –
CN1Cc2ncc(C(=O)NCc3c(F)cc(F)cc3F)cc2N(Cc2cc(F)cc(F)c2)C1=O | – | 19% | –
CC1c2ccc(C(=O)NCc3c(F)cc(F)cc3F)cc2N(Cc2cc(F)cc(F)c2)C(=O)N1C (racemic) | – | – | EC50 ([1]; hek-293t): 470 nM
CN1Cc2ccc(C(=O)NCc3cccc(N4CCCC4=O)c3)cc2N(Cc2c(F)cccc2Cl)C1=O | – | inactive | –
CN1Cc2ccc(C(=O)NCc3ccc4ccoc4c3)cc2N(Cc2c(F)cccc2Cl)C1=O | – | – | Activity (HEK-293T [2]; filed as agonist): 84%
CC1c2ccc(C(=O)NCc3c(F)cc(F)cc3F)cc2N(Cc2c(F)cccc2F)C(=O)N1C (racemic) [listing 1 of 2 here] | – | – | Activity (HEK-293T [3]; filed as agonist): 64%
CN1Cc2ccc(C(=O)NCc3ccc4cnn(C)c4c3)cc2N(Cc2c(F)cccc2Cl)C1=O | – | inactive | –
O=C(NCc1c(F)cc(F)cc1F)c1ccc2c(c1)N(Cc1c(F)cccc1Cl)C(=O)N(O)C2 | – | 8% | –
CN1Cc2ccc(C(=O)NCc3cccc(C(=O)N4CCCC4)c3)cc2N(Cc2c(F)cccc2Cl)C1=O | – | inactive | –
Cn1cnc(N2Cc3ccc(C(=O)NCc4c(F)cc(F)cc4F)cc3N(Cc3c(F)cccc3Cl)C2=O)c1 | – | inactive | –
CN1Cc2ccc(C(=O)NCc3cccc(N4CCOCC4)c3)cc2N(Cc2c(F)cccc2Cl)C1=O | – | inactive | –
Cc1cc(CN2C(=O)N(C)Cc3ccc(C(=O)NCc4c(F)cc(F)cc4F)cc32)on1 | – | – | Activity (HEK-293T [3]): 12%
CN1Cc2ccc(C(=O)NCc3ccccc3F)cc2N(Cc2c(F)cccc2Cl)C1=O | – | – | Activity (HEK-293T [3]): 34%
CN1Cc2ccc(C(=O)NCc3c(F)cc(F)cc3F)cc2N(Cc2cn(C)cn2)C1=O | – | 7% | –

Compound | EC50 ([1]; Homo sapiens, HEK-293T) [nM] | Activity (HEK-293T [2]) | other results
CN1Cc2ccc(C(=O)NCc3cnc(-c4ccccc4)s3)cc2N(Cc2c(F)cccc2Cl)C1=O | – | inactive | –
C[C@H]1c2ccc(C(=O)NCc3c(F)cc(F)cc3F)cc2N(Cc2c(Cl)c[nH]c(=O)c2F)C(=O)N1C | – | 16% | –
Cc1ccc(CNC(=O)c2ccc3c(c2)N(Cc2cc(F)cc(F)c2)C(=O)N(C)C3)o1 | – | 16% | –
CC1c2ccc(C(=O)NCc3c(F)cc(F)cc3F)cc2N(Cc2c(F)cccc2F)C(=O)N1C (racemic) [listing 2 of 2 here] | – | – | EC50 ([1]; hek-293t): 21 nM
CN1Cc2ccc(C(=O)NCc3c(F)cc(F)cc3F)cc2N(Cc2ccnn2C)C1=O | – | 7% | –
Cc1cc(CN2C(=O)N(C)Cc3ccc(C(=O)NCc4c(F)cc(F)cc4F)cc32)nn1C | – | 14% | –
Cc1nc(CN2C(=O)N(C)Cc3ccc(C(=O)NCc4c(F)cc(F)cc4F)cc32)co1 | – | 13% | –
CN1Cc2ccc(C(=O)NCc3ccc4c(c3)CC(=O)N4)cc2N(Cc2c(F)cccc2Cl)C1=O | – | 2% | –
CON1Cc2ccc(C(=O)NCc3c(F)cc(F)cc3F)cc2N(Cc2c(F)cccc2Cl)C1=O | – | – | Activity (HEK-293T [2]; filed as agonist): 82%
CN1Cc2ccc(C(=O)NCc3c(F)cc(F)cc3F)cc2N(Cc2ccccc2Cl)C1=O | – | – | Activity (HEK-293T [2]; filed as agonist): 76%
Cc1cc(CN2C(=O)N(C)C(C)c3ccc(C(=O)NCc4c(F)cc(F)cc4F)cc32)ccn1 (racemic) [listing 2 of 2 here] | – | – | Activity (HEK-293T [2]; filed as agonist): 61%
CN1Cc2ccc(C(=O)NCc3ccc(C(F)(F)F)nc3)cc2N(Cc2c(F)cccc2Cl)C1=O | – | inactive | –
CN1Cc2ccc(C(=O)NCc3ccc4c(c3)NCCO4)cc2N(Cc2c(F)cccc2Cl)C1=O | – | inactive | –
CN1Cc2ccc(C(=O)NCc3ccc4occc4c3)cc2N(Cc2c(F)cccc2Cl)C1=O | – | – | Activity (HEK-293T [2]; filed as agonist): 70%
CN1Cc2ccc(C(=O)NCc3cccc4c3OCO4)cc2N(Cc2c(F)cccc2Cl)C1=O | – | 4% | –
Cc1cc(CN2C(=O)N(C)C(C)c3ccc(C(=O)NCc4c(F)cc(F)cc4F)cc32)ccn1 (stereo in doubt; 74) | – | – | EC50 ([1]; hek-293t): 816 nM
CN1Cc2ccc(C(=O)NCc3cccc(-n4cncn4)c3)cc2N(Cc2c(F)cccc2Cl)C1=O | – | inactive | –
CC1c2ccc(C(=O)NCc3c(F)cc(F)cc3F)cc2N(Cc2c(F)cccc2S(C)(=O)=O)C(=O)N1C (stereo not given) | – | – | Activity (HEK-293T [3]; filed as agonist): 61%
CC1c2ccc(C(=O)NCc3c(F)cc(F)cc3F)cc2N(Cc2ccccc2F)C(=O)N1C (stereo in doubt; 98) | – | – | EC50 ([1]; hek-293t): 122 nM
CN1Cc2ccc(C(=O)NCc3c(F)cc(F)cc3F)cc2N(Cc2c(F)cccc2C#N)C1=O | – | – | Activity (HEK-293T [3]): 15%
CN1Cc2ccc(C(=O)NCc3c(F)cc(F)cc3F)cc2N(Cc2cn3ccccc3n2)C1=O | – | 16% | –
CN1Cc2ccc(C(=O)NCc3ccc(N4CCCC4=O)cc3)cc2N(Cc2c(F)cccc2Cl)C1=O | – | inactive | –
CN1Cc2ccc(C(=O)NCc3cccc(-n4cccn4)c3)cc2N(Cc2c(F)cccc2Cl)C1=O | – | inactive | –

Further lines, with some results ahead:

EC50 ([1]; Homo sapiens, HEK-293T) [nM] | Compound | Activity (HEK-293T [2]) | other results
153 | CC1c2ccc(C(=O)NCc3c(F)cc(F)cc3F)cc2N(Cc2ccccc2F)C(=O)N1C (racemic) | – | –
47 | Cc1cccc(CN2C(=O)N(C)[C@@H](C)c3ccc(C(=O)NCc4c(F)cc(F)cc4F)cc32)c1F | – | –
157 | CC1c2ccc(C(=O)NCc3c(F)cc(F)cc3F)cc2N(Cc2c(F)cc(Cl)cc2F)C(=O)N1C (stereo not given) | – | –
36 | C[C@H]1c2ccc(C(=O)NCc3c(F)cc(F)cc3F)cc2N(Cc2c(F)ccc(F)c2Cl)C(=O)N1C | – | –
39 | Cc1ncc(Cl)c(CN2C(=O)N(C)C(C)c3ccc(C(=O)NCc4c(F)cc(F)cc4F)cc32)c1F (stereo not given) | – | –
191 | CN1Cc2ccc(C(=O)NCc3c(F)cc(F)cc3F)cc2N(Cc2ccccc2F)C1=O | – | –
2600 | C[C@@H]1c2ccc(C(=O)NCc3c(F)cc(F)cc3F)cc2N(Cc2c(F)cccc2Cl)C(=O)N1C | – | –
2340 | O=C(NCc1c(F)cc(F)cc1F)c1ccc2c(c1)N(Cc1cc(F)cc(F)c1)C(=O)NC2 | – | –
204 | CN1Cc2ccc(C(=O)NCc3c(F)cc(F)cc3F)cc2N(Cc2ccc(F)cc2F)C1=O | – | –
133 | CN1Cc2ccc(C(=O)NCc3c(F)cc(F)cc3F)cc2N(Cc2c(F)cccc2Cl)C1=O | – | –
41 | Cc1cccc(F)c1CN1C(=O)N(C)C(C)c2ccc(C(=O)NCc3c(F)cc(F)cc3F)cc21 (stereo not given) | – | –
1710 | Cc1ncc(CN2C(=O)N(C)Cc3ccc(C(=O)NCc4c(F)cc(F)cc4F)cc32)s1 | – | –
317 | Cc1cccc(F)c1CN1C(=O)N(C)Cc2ccc(C(=O)NCc3c(F)cc(F)cc3F)cc21 | – | –
60 | Cc1ccc(Cl)c(CN2C(=O)N(C)C(C)c3ccc(C(=O)NCc4c(F)cc(F)cc4F)cc32)c1F (stereo not given) | – | –
134 | Cc1nccc(CN2C(=O)N(C)C(C)c3ccc(C(=O)NCc4c(F)cc(F)cc4F)cc32)c1F (stereo not given) | – | –
2260 | CN1Cc2ccc(C(=O)NCc3cc4ccccc4o3)cc2N(Cc2cc(F)cc(F)c2)C1=O | – | –
248 | COc1cccc(F)c1CN1C(=O)N(C)Cc2ccc(C(=O)NCc3c(F)cc(F)cc3F)cc21 | – | –
47 | Cc1nccc(CN2C(=O)N(C)[C@@H](C)c3ccc(C(=O)NCc4c(F)cc(F)cc4F)cc32)c1F | – | –
403 | Cc1ccc(Cl)c(CN2C(=O)N(C)Cc3ccc(C(=O)NCc4c(F)cc(F)cc4F)cc32)c1F | – | Activity (HEK-293T [2]; filed as agonist): 68%

EC50 ([1]; Homo sapiens, HEK-293T) [nM] | Compound | Activity (HEK-293T [2]) | other results
450 | CN1Cc2ccc(C(=O)NCc3ccc(F)cc3F)cc2N(Cc2cc(F)cc(F)c2)C1=O | – | –
369 | Cc1cccc(CN2C(=O)N(C)Cc3ccc(C(=O)NCc4c(F)cc(F)cc4F)cc32)c1F | – | –
29 | CC1c2ccc(C(=O)NCc3c(F)cc(F)cc3F)cc2N(Cc2c(F)cccc2Cl)C(=O)N1C (stereo not given) | – | –
270 | CC1c2ccc(C(=O)NCc3c(F)cc(F)cc3F)cc2N(Cc2ccccc2)C(=O)N1C (stereo not given) | – | –
91 | Cc1cccc(CN2C(=O)N(C)C(C)c3ccc(C(=O)NCc4c(F)cc(F)cc4F)cc32)c1F (stereo not given) | – | –
980 | CN1Cc2ccc(C(=O)NCc3c(F)cc(F)cc3F)cc2N(Cc2ccccc2)C1=O | – | –
135 | Cc1ccc(CN2C(=O)N(C)[C@@H](C)c3ccc(C(=O)NCc4c(F)cc(F)cc4F)cc32)c(F)c1 | – | –
1760 | C[C@H]1c2ccc(C(=O)NCc3c(F)cc(F)cc3F)cc2N(Cc2c(Cl)cn(C)c(=O)c2F)C(=O)N1C | – | –
196 | CN1Cc2ccc(C(=O)NCc3c(F)cc(F)cc3F)cc2N(Cc2ccc(F)cc2)C1=O | – | –
274 | CN1Cc2ccc(C(=O)NCc3c(F)cc(F)cc3F)cc2N(Cc2cc(F)cc(F)c2)C1=O | – | –
38 | Cc1ccc(Cl)c(CN2C(=O)N(C)[C@@H](C)c3ccc(C(=O)NCc4c(F)cc(F)cc4F)cc32)c1F | – | –
37 | Cc1ncc(Cl)c(CN2C(=O)N(C)[C@@H](C)c3ccc(C(=O)NCc4c(F)cc(F)cc4F)cc32)c1F | – | –
388 | CC1c2ccc(C(=O)NCc3c(F)cc(F)cc3F)cc2N(Cc2ccncc2F)C(=O)N1C (stereo not given) | – | –
3340 | CN1Cc2ccc(C(=O)NCc3c(F)cc(F)cc3F)cc2N(Cc2ccncc2)C1=O | – | –
200 | CC1c2ccc(C(=O)NCc3c(F)cc(F)cc3F)cc2N(Cc2ccc(F)cc2)C(=O)N1C (stereo not given) | – | –
1040 | C[C@H]1c2ccc(C(=O)NCc3c(F)cc(F)cc3F)cc2N(Cc2ncccc2F)C(=O)N1C | – | –
169 | C[C@H]1c2ccc(C(=O)NCc3c(F)cc(F)cc3F)cc2N(Cc2c(F)cncc2F)C(=O)N1C | – | –
181 | CC1c2ccc(C(=O)NCc3c(F)cc(F)cc3F)cc2N(Cc2c(F)cccc2C(F)(F)F)C(=O)N1C (stereo not given) | – | –
